This assay addresses IRE1α (Homo sapiens, UniProt O75460). Put plainly: fluorescent XBP1 mini-substrate RNase assay with recombinant IRE1α*. It is filed as biochemical.

By IC50 is commonly meant the concentration that gives 50% inhibition.

Chain of IRE1α (O75460 469-977): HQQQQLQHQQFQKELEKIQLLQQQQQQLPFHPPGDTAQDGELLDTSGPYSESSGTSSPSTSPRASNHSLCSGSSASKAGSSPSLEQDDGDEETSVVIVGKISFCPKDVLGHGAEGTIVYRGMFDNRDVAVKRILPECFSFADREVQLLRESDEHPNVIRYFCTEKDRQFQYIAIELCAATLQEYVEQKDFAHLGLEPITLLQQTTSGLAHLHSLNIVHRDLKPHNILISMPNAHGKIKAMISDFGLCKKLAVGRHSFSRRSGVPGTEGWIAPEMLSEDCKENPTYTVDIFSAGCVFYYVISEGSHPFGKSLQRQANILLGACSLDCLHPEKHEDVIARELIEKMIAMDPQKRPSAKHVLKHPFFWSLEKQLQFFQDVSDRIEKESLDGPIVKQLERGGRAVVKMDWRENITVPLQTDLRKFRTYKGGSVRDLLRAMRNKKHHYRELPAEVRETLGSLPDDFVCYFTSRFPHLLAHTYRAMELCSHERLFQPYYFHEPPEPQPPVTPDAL

As to `CC(C)(C)c1nc(-c2ccc(NC(=O)Nc3cccc(C(F)(F)F)c3)c3ccccc23)c2c(N)nccn12` [KIRA6, 1-(4-(8-amino-3-tert-butylimidazo[1,5-a]pyrazin-1-yl)naphthalen-1-yl)-3-(3-(trifluoromethyl)phenyl)urea], the IC50 was determined as 0.0401 µM.

The values are drawn from publication PMC5497784 (Cell metabolism, 2017).
